For 20 compounds, IC50 results are on record in patent US20260356840A1, “[1,2,4]TRIAZOLO[1,5-A]PYRIMIDINONE WRN INHIBITORS” (Nimbus Wadjet, Inc., priority 2023, published 2026).

Bounds are passed on as bounds.

For the test, the target named is T1, human Werner helicase (Uniprot Q14191, amino acids 517-1235 with L1074F point mutation), WRN-BV08 (Homo sapiens, UniProt Q14191, L1074F).
T1 construct: Uniprot Q14191, amino acids 517-1235 with L1074F point mutation; TEV cleavable 8xHis tag (C, cleaved yes); made in house; host or cells: Sf9 insect cells (baculovirus, pFastBac)
T1 sequence (Q14191 517-1235 L1074F): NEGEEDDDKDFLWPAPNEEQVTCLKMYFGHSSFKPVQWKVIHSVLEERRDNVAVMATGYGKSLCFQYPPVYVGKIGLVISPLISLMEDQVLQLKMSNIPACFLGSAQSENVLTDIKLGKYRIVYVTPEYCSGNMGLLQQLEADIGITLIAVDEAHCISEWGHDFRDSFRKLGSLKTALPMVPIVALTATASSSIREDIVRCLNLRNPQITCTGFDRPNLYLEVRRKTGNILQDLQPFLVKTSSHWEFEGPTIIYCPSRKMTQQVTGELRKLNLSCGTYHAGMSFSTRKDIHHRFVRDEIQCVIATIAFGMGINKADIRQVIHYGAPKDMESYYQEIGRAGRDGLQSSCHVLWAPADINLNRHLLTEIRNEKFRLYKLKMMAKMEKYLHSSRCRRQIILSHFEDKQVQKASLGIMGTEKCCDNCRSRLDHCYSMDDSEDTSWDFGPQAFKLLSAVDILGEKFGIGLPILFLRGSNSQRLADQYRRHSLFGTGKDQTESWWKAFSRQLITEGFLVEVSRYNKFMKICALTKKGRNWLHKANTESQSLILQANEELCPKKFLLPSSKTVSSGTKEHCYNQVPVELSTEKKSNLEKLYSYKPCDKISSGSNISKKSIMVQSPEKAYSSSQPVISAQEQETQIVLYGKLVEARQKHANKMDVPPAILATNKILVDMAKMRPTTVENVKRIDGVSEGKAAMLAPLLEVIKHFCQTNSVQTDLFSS
Nature of the test: WRN (BV08) ADP-Glo Assay. It counts as biochemical.
Usually IC50 stands for the concentration at which inhibition is half-maximal. A lower IC50 goes with higher potency. `CCc1c(N2CCN(C(=O)c3ncnc(C)c3O)CC2)c(=O)n2nc(-c3cnc(OC)c(C)c3)nc2n1CC(=O)Nc1ccc(C(F)(F)F)cc1Cl` [Compound I-42, N-[2-chloro-4-(trifluoromethyl)phenyl]-2-{5-ethyl-6-[4-(5-hydroxy-6-methylpyrimidine-4-carbonyl)piperazin-1-yl]-2-(6-methoxy-5-methylpyridin-3-yl)-7-oxo-4H,7H-[1,2,4]triazolo[1,5-a]pyrimidin-4-yl}acetamide] yielded a half-inhibitory concentration (IC50) of 5 to 50 nM.
To `CCc1c(N2CCN(C(=O)c3ncnc(C)c3O)CC2)c(=O)n2nc(-c3cc(C)nc(OC)c3)nc2n1CC(=O)Nc1ccc(C(F)(F)F)cc1Cl` [Compound I-43, N-[2-chloro-4-(trifluoromethyl)phenyl]-2-{5-ethyl-6-[4-(5-hydroxy-6-methylpyrimidine-4-carbonyl)piperazin-1-yl]-2-(2-methoxy-6-methylpyridin-4-yl)-7-oxo-4H,7H-[1,2,4]triazolo[1,5-a]pyrimidin-4-yl}acetamide] belongs 5 to 50 nM; to `CCc1c(N2CCN(C(=O)c3ncnc(C)c3O)CC2)c(=O)n2nc(-c3ccnc(OC(F)F)c3)nc2n1CC(=O)Nc1ccc(C(F)(F)F)cc1Cl` [Compound I-44, N-[2-chloro-4-(trifluoromethyl)phenyl]-2-{2-[2-(difluoromethoxy)pyridin-4-yl]-5-ethyl-6-[4-(5-hydroxy-6-methylpyrimidine-4-carbonyl)piperazin-1-yl]-7-oxo-4H,7H-[1,2,4]triazolo[1,5-a]pyrimidin-4-yl}acetamide], 5 to 50 nM; to `CCc1c(N2CCN(C(=O)c3ncnc(C)c3O)CC2)c(=O)n2nc(-c3ccnc(OC)c3F)nc2n1CC(=O)Nc1ccc(C(F)(F)F)cc1Cl` [Compound I-45, N-[2-chloro-4-(trifluoromethyl)phenyl]-2-[5-ethyl-2-(3-fluoro-2-methoxypyridin-4-yl)-6-[4-(5-hydroxy-6-methylpyrimidine-4-carbonyl)piperazin-1-yl]-7-oxo-4H,7H-[1,2,4]triazolo[1,5-a]pyrimidin-4-yl]acetamide], 5 to 50 nM.
Turning to `CCc1c(N2CCN(C(C)=O)CC2)c(=O)n2nc(-c3ccnc(OC)c3)nc2n1CC(=O)Nc1ccc(C(F)(F)F)cc1Cl` [Compound I-46, 2-[6-(4-acetylpiperazin-1-yl)-5-ethyl-2-(2-methoxypyridin-4-yl)-7-oxo-4H,7H-[1,2,4]triazolo[1,5-a]pyrimidin-4-yl]-N-[2-chloro-4-(trifluoromethyl)phenyl]acetamide], the half-inhibitory concentration (IC50) lay in the range of 5 to 50 nM.
The result for `CCc1c(N2CCN(C(=O)C(F)(F)F)CC2)c(=O)n2nc(-c3ccnc(OC)c3)nc2n1CC(=O)Nc1ccc(C(F)(F)F)cc1Cl` [Compound I-47, N-[2-chloro-4-(trifluoromethyl)phenyl]-2-[5-ethyl-2-(2-methoxypyridin-4-yl)-7-oxo-6-[4-(2,2,2-trifluoroacetyl)piperazin-1-yl]-4H,7H-[1,2,4]triazolo[1,5-a]pyrimidin-4-yl]acetamide] reads 50 to 100 nM; that for `CCc1c(N2CCN(C(=O)c3cnn(C)c3)CC2)c(=O)n2nc(-c3ccnc(OC)c3)nc2n1CC(=O)Nc1ccc(C(F)(F)F)cc1Cl` [Compound I-48, N-[2-chloro-4-(trifluoromethyl)phenyl]-2-[5-ethyl-2-(2-methoxypyridin-4-yl)-6-[4-(1-methyl-1H-pyrazole-4-carbonyl)piperazin-1-yl]-7-oxo-4H,7H-[1,2,4]triazolo[1,5-a]pyrimidin-4-yl]acetamide], below 5 nM.
The result for `CCc1c(N2CCN(C(=O)c3cnn(C)c3C)CC2)c(=O)n2nc(-c3ccnc(OC)c3)nc2n1CC(=O)Nc1ccc(C(F)(F)F)cc1Cl` [Compound I-49, N-[2-chloro-4-(trifluoromethyl)phenyl]-2-{6-[4-(1,5-dimethyl-1H-pyrazole-4-carbonyl)piperazin-1-yl]-5-ethyl-2-(2-methoxypyridin-4-yl)-7-oxo-4H,7H-[1,2,4]triazolo[1,5-a]pyrimidin-4-yl}acetamide] reads 5 to 50 nM.
In turn, `CCc1c(N2CCN(C(=O)c3c(C)nn(C)c3C)CC2)c(=O)n2nc(-c3ccnc(OC)c3)nc2n1CC(=O)Nc1ccc(C(F)(F)F)cc1Cl` [Compound I-50, N-[2-chloro-4-(trifluoromethyl)phenyl]-2-[5-ethyl-2-(2-methoxypyridin-4-yl)-7-oxo-6-[4-(1,3,5-trimethyl-1H-pyrazole-4-carbonyl)piperazin-1-yl]-4H,7H-[1,2,4]triazolo[1,5-a]pyrimidin-4-yl]acetamide] displayed an IC50 of 5 to 50 nM.
The result for `CCc1c(N2CCN(C(=O)c3cnn(C)c3)CC2)c(=O)n2nc(-c3cnc(OC)nc3)nc2n1CC(=O)Nc1ccc(C(F)(F)F)cc1Cl` [Compound I-51, N-[2-chloro-4-(trifluoromethyl)phenyl]-2-[5-ethyl-2-(2-methoxypyrimidin-5-yl)-6-[4-(1-methyl-1H-pyrazole-4-carbonyl)piperazin-1-yl]-7-oxo-4H,7H-[1,2,4]triazolo[1,5-a]pyrimidin-4-yl]acetamide] reads 5 to 50 nM; that for `CCc1c(N2CCN(C(=O)c3cnn(C)c3)CC2)c(=O)n2nc(-c3ccnc(OC4CC4)c3)nc2n1CC(=O)Nc1ccc(C(F)(F)F)cc1Cl` [Compound I-52, N-[2-chloro-4-(trifluoromethyl)phenyl]-2-[2-(2-cyclopropoxypyridin-4-yl)-5-ethyl-6-[4-(1-methyl-1H-pyrazole-4-carbonyl)piperazin-1-yl]-7-oxo-4H,7H-[1,2,4]triazolo[1,5-a]pyrimidin-4-yl]acetamide], 5 to 50 nM.
Regarding `CCc1c(N2CCN(C(=O)C(F)F)CC2)c(=O)n2nc(-c3ccnc(OC)c3)nc2n1CC(=O)Nc1ccc(C(F)(F)F)cc1Cl` [Compound I-53, N-[2-chloro-4-(trifluoromethyl)phenyl]-2-{6-[4-(2,2-difluoroacetyl)piperazin-1-yl]-5-ethyl-2-(2-methoxypyridin-4-yl)-7-oxo-4H,7H-[1,2,4]triazolo[1,5-a]pyrimidin-4-yl}acetamide], the half-maximal inhibitory concentration (IC50) was 5 to 50 nM.
Compound `CCc1c(N2CCN(C(=O)c3cnn(C)c3)CC2)c(=O)n2nc(-c3cccnc3OC)nc2n1CC(=O)Nc1ccc(C(F)(F)F)cc1Cl` [Compound I-54, N-[2-chloro-4-(trifluoromethyl)phenyl]-2-[5-ethyl-2-(2-methoxypyridin-3-yl)-6-[4-(1-methyl-1H-pyrazole-4-carbonyl)piperazin-1-yl]-7-oxo-4H,7H-[1,2,4]triazolo[1,5-a]pyrimidin-4-yl]acetamide] registered an IC50 of 5 to 50 nM.
To `CCc1c(N2CCN(C(C)=O)CC2)c(=O)n2nc(-c3cnn(CC(C)(C)O)c3)nc2n1CC(=O)Nc1ccc(C(F)(F)F)cc1Cl` [Compound I-55, 2-[6-(4-acetylpiperazin-1-yl)-5-ethyl-2-[1-(2-hydroxy-2-methylpropyl)-1H-pyrazol-4-yl]-7-oxo-4H,7H-[1,2,4]triazolo[1,5-a]pyrimidin-4-yl]-N-[2-chloro-4-(trifluoromethyl)phenyl]acetamide] belongs 5 to 50 nM; to `CCc1c(N2CCN(C(=O)c3cnn(C)c3)CC2)c(=O)n2nc(-c3cnn(CC(C)(C)O)c3)nc2n1CC(=O)Nc1ccc(C(F)(F)F)cc1Cl` [Compound I-56, N-[2-chloro-4-(trifluoromethyl)phenyl]-2-{5-ethyl-2-[1-(2-hydroxy-2-methylpropyl)-1H-pyrazol-4-yl]-6-[4-(1-methyl-1H-pyrazole-4-carbonyl)piperazin-1-yl]-7-oxo-4H,7H-[1,2,4]triazolo[1,5-a]pyrimidin-4-yl}acetamide], 5 to 50 nM.
To `CCc1c(N2CCN(C(=O)c3nc(C)cs3)CC2)c(=O)n2nc(-c3ccnc(OC)c3)nc2n1CC(=O)Nc1ccc(C(F)(F)F)cc1Cl` [Compound I-57, N-[2-chloro-4-(trifluoromethyl)phenyl]-2-[5-ethyl-2-(2-methoxypyridin-4-yl)-6-[4-(4-methyl-1,3-thiazole-2-carbonyl)piperazin-1-yl]-7-oxo-4H,7H-[1,2,4]triazolo[1,5-a]pyrimidin-4-yl]acetamide] belongs 100 to 500 nM; to `CCc1c(N2CCN(C(=O)c3ncc(C)s3)CC2)c(=O)n2nc(-c3ccnc(OC)c3)nc2n1CC(=O)Nc1ccc(C(F)(F)F)cc1Cl` [Compound I-58, N-[2-chloro-4-(trifluoromethyl)phenyl]-2-[5-ethyl-2-(2-methoxypyridin-4-yl)-6-[4-(5-methyl-1,3-thiazole-2-carbonyl)piperazin-1-yl]-7-oxo-4H,7H-[1,2,4]triazolo[1,5-a]pyrimidin-4-yl]acetamide], 50 to 100 nM; to `CCc1c(N2CCN(C(=O)c3cnc(C)s3)CC2)c(=O)n2nc(-c3ccnc(OC)c3)nc2n1CC(=O)Nc1ccc(C(F)(F)F)cc1Cl` [Compound I-59, N-[2-chloro-4-(trifluoromethyl)phenyl]-2-[5-ethyl-2-(2-methoxypyridin-4-yl)-6-[4-(2-methyl-1,3-thiazole-5-carbonyl)piperazin-1-yl]-7-oxo-4H,7H-[1,2,4]triazolo[1,5-a]pyrimidin-4-yl]acetamide], 5 to 50 nM.
To `CCc1c(N2CCN(C(=O)c3cnn(C4CC4)c3)CC2)c(=O)n2nc(-c3ccnc(OC)c3)nc2n1CC(=O)Nc1ccc(C(F)(F)F)cc1Cl` [Compound I-60, N-[2-chloro-4-(trifluoromethyl)phenyl]-2-{6-[4-(1-cyclopropyl-1H-pyrazole-4-carbonyl)piperazin-1-yl]-5-ethyl-2-(2-methoxypyridin-4-yl)-7-oxo-4H,7H-[1,2,4]triazolo[1,5-a]pyrimidin-4-yl}acetamide] belongs 5 to 50 nM; to `CCc1c(N2CCN(C(=O)c3cnn(C(F)F)c3)CC2)c(=O)n2nc(-c3ccnc(OC)c3)nc2n1CC(=O)Nc1ccc(C(F)(F)F)cc1Cl` [Compound I-61, N-[2-chloro-4-(trifluoromethyl)phenyl]-2-(6-{4-[1-(difluoromethyl)-1H-pyrazole-4-carbonyl]piperazin-1-yl}-5-ethyl-2-(2-methoxypyridin-4-yl)-7-oxo-4H,7H-[1,2,4]triazolo[1,5-a]pyrimidin-4-yl)acetamide], 5 to 50 nM.
